Measurements published in US20240034729A9, “HETEROCYCLIC COMPOUND, INTERMEDIATE, PREPARATION METHOD THEREFOR AND APPLICATION THEREOF” (WUHAN LL SCIENCE AND TECHNOLOGY DEVELOPMENT CO., LTD., priority 2018, published 2024).
Entries after “also recorded” stand apart in the source; their conditions may differ.

Key:
[1] = In vitro metabolic stability, human liver microsome; assay type: in vitro ADME; conditions: liver microsomes, 1 mg/mL liver microsome protein, 37° C., NA = essentially not metabolized, read-out: T1/2 in human liver microsome
Procedure, shortened: (§1)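 Compounds incubated with rat or human liver microsomes. At each time point reactions stopped with cold acetonitrile containing internal standards and centrifuged. Supernatants analysed by LC-MS to derive in vitro metabolic half-life.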

Male SD rats = test: Two-bottle dysgeusia test (quinine water vs normal water); assay type: in vivo, rat; conditions: for Quinine/tap water* 100%: Table 9, rats, single intraperitoneal injection
Method: All drinking water bottles were removed out 20 h before the start of the formal experiment, and all the animals were deprived of water until the start of the experiment. In the experiment, all the animals were randomly grouped and then subjected to a single intraperitoneal injection of a test compound or a vehicle before water was resupplied. The administration time was determined according to the Tmax of the test compound. Then the animals were placed in separate cages, and two bottles of drinking water (one bottle of normal drinking water and one bottle of 0.3 mM quinine water) were provided.

[2] = test system: Male Dunkin Hartley guinea pigs; test: ATP-citric acid cough model; assay type: in vivo, guinea pig; conditions: for Number of coughs / cough inhibition (in words): compared with the vehicle group
Method: Male Dunkin Hartley guinea pigs (300-400 g) were placed into a whole-body plethysmography box to adapt for 3-5 min, then ATP atomization is carried out for 2 min, and 3 min later, 5 min of citric acid atomization was followed, with all atomization rates being about 300 uL/min. The number of coughs and the cough latency of the animals within 10 min from the start of the citric acid atomization were recorded. During the 10-min observation, coughs of the animals were counted manually, and the coughs were judged according to cough postures of the guinea pigs, such as abdominal twitching, mouth opening, head inclining downward abruptly and the like. The number of coughs during 10 min were recorded, and the cough latency of the guinea pigs was also recorded.
The animals were divided into a vehicle group, a dextromethorphan (63 mg/kg) positive group, an AF-219 (30 mg/kg) positive group and Example 173 compound (3, 10, 30 mg/kg) administration groups, and all the compounds were orally administered. Except that dextromethorphan was administered 40 min before ATP-citric acid exposure, the remaining compounds were administered 2 h before ATP-citric acid exposure.

[3] = In vitro metabolic stability, guinea pig liver microsome; assay type: in vitro ADME; conditions: liver microsomes, 1 mg/mL liver microsome protein, 37° C., NA = essentially not metabolized, read-out: T1/2 in guinea pig liver microsome
Procedure, shortened: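 Test compound incubated at 37° C. in microsomes (1 mg/mL protein) with NADPH-regenerating system (1 mM NADP, 6 mM glucose 6-phosphate, 25 U/mL G6PDH, 5 mM MgCl2). Timed aliquots quenched in cold acetonitrile with internal standards; supernatant analysed by LC-MS to derive in vitro half-life.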

[4] = test system: Male Dunkin Hartley guinea pigs; test: Citric acid only cough model; assay type: in vivo, guinea pig; design: Mean cough latency: unit not given beside the values; conditions: for Mean number of coughs: 17.5% citric acid
Method: Male Dunkin Hartley guinea pigs (300-350 g) were placed in an animal atomization box, and then the door of the atomization box was closed while the ultrasonic atomizer (Guangdong Yuehua) was turned on. 17.5% citric acid gas was introduced into the atomization box at a maximum atomization rate (about 2 mL/min) for 20 s, and coughs of the animals within 10 min were continuously observed from the time of the start of atomization. During the 10-min observation, coughs of the animals were counted manually, and the number of coughs were judged according to cough postures of the guinea pigs, such as abdominal twitching, mouth opening, and head inclining downward abruptly. The number of coughs during the first 5 min and that during 10 min were recorded, and the cough latency of the guinea pigs, namely the time from the initiation of citric acid induction to the appearance of the first cough, was also recorded.

[5] = In vitro metabolic stability, rat liver microsome; assay type: in vitro ADME; conditions: liver microsomes, 1 mg/mL liver microsome protein, 37° C., NA = essentially not metabolized, read-out: T1/2 in rat liver microsome
Procedure, shortened: as §1

[6] = In vitro cytotoxicity assay, CCK-8 method; assay type: cell-based; conditions: human, HepG2 cells
Procedure, shortened: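 HepG2 cells at 50,000/well, grown to 80–90% confluence, exposed to compound dilutions or DMSO vehicle for 48 h at 37 °C. Viability by CCK-8 (1.5 h, 37 °C), absorbance at 450 nm; CC50 calculated.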

[7] = target: hP2X2/3 (heterodimeric receptors formed by human purinergic P2X receptors subtype 2 and subtype 3) (Homo sapiens (Human), UniProt P56373+Q9UBL9); test: FLIPR calcium assay, hP2X2/3 expressed in HEK293 cells (P2X2/3 receptor selectivity); assay type: cell-based
Chain of hP2X2/3 (heterodimeric receptors formed by human purinergic P2X receptors subtype 2 and subtype 3) (P56373 whole entry): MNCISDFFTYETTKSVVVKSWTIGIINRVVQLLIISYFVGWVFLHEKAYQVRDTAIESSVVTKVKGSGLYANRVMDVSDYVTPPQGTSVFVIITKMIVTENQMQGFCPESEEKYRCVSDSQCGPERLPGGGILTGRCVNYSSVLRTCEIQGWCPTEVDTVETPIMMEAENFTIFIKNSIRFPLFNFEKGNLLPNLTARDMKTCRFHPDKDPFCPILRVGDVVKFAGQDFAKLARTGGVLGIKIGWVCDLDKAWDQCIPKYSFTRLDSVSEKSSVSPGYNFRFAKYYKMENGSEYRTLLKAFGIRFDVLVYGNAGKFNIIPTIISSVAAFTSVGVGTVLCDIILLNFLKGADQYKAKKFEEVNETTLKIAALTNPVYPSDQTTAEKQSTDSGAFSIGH
Chain of hP2X2/3 (heterodimeric receptors formed by human purinergic P2X receptors subtype 2 and subtype 3) (Q9UBL9 whole entry): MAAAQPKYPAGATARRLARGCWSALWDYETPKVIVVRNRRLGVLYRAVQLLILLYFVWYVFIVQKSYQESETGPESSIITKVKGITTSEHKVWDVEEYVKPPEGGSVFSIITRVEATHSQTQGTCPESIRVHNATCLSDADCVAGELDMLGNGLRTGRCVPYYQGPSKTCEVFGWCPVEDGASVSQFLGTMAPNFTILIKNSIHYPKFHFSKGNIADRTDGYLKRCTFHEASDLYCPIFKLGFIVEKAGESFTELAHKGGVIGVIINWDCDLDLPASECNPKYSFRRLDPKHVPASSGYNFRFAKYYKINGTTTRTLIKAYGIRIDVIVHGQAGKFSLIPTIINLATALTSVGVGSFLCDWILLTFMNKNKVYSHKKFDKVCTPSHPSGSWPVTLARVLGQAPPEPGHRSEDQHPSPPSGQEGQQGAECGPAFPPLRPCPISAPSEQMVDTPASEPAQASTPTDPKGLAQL

[8] = phase II clinical trial; cited from earlier work
[9] = 30 mg/kg oral, 2 h before ATP-citric acid exposure
[10] = before administration (baseline of the group)

COC(=O)N1CCO[C@@H](Cc2c(-c3c(F)cc(S(N)(=O)=O)cc3F)nc3cc(Cl)ccn23)C1 [Compound 172, methyl (S)-2-((7-chloro-2-(2,6-difluoro-4-sulfamoylphenyl)imidazo[1,2-a]pyridin-3-yl)methyl)morpholine-4-carboxylate]
half-life [1]: 13.7 h | Ratio of quinine/water intake of rats (in words) (Male SD rats; 5 mg/kg, 10 mg/kg and 20 mg/kg, compared with the blank vehicle): almost unaffected | Quinine/tap water* 100% (Male SD rats; 5 mg/kg): 7.05% | Quinine/tap water* 100% (Male SD rats; 10 mg/kg): 7.41% | Quinine/tap water* 100% (Male SD rats; 20 mg/kg): 8.66% | Number of coughs during 10 min ([2]; 3 mg/kg oral, 2 h before ATP-citric acid exposure): 14.42 | Number of coughs during 10 min ([2]; 10 mg/kg oral, 2 h before ATP-citric acid exposure): 10.17 | Number of coughs during 10 min [2, 9]: 9.83 | Number of coughs / cough inhibition (in words) [2]: stronger cough inhibition effect than positive compound 2 | Number of coughs / cough inhibition (in words) ([2]; listed as compound 172): can significantly reduce the number of coughs; also recorded: inhibition in a dose-dependent manner | half-life [3]: 6.84 h | Cough inhibition rate Vs Baseline (%) ([4]; 30 mg/kg): 50.6% | Cough inhibition rate Vs Vehicle (%) ([4]; 30 mg/kg): 43.9% | Number of coughs and cough latency (in words) ([4]; 30 mg/kg, compared with the blank vehicle or the condition before administration): can effectively reduce the number of coughs and prolong the cough latency | Mean cough latency ([4]; after administration, 30 mg/kg): 118.89 | Mean number of coughs ([4]; after administration, 30 mg/kg): 9.67 | Mean cough latency [4, 10]: 87.56 | Mean number of coughs [4, 10]: 19.56 | half-life [5]: 3.72 h | CC50 at 48 h [6]: 57.1 µM | Folds of selectivity [7]: >85714

COc1cc(C(C)C)c(Oc2cnc(N)nc2N)cc1S(N)(=O)=O [AF-219, reference compound]
Cough inhibition ratio vs. vehicle (%) [2, 9]: 45.20% | Number of coughs during 10 min [2, 9]: 11.42 | Dysgeusia (in words) [8]: serious dysgeusia | Efficacy for refractory cough (in words) [8]: relatively good efficacy for refractory cough
